Data taken from patent US20220204498A1, “PYRIDO-PYRIMIDINYL COMPOUNDS AND METHODS OF USE” (Genentech, Inc., priority 2019, published 2022).

Molecular target: T1, IRE1α (Homo sapiens, UniProt O75460, D688N)
T1 construct: containing the kinase and RNase domains (KR, AA G547-1L977, D688N); made in house; host or cells: Sf9 insect cells
Assay: IRE1α TR-FRET competition binding assay (IRE1α HTRF)
Conditions: His-tagged IRE1α kinase dead construct (KR, D688N) 0.25 nM; Alexa fluor 647-labeled ATP competitive probe 2 nM; one hour at room temperature; read-out: IRE1α (alpha) HTRF (IC50)
Procedure, shortened: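 His-tagged kinase-dead IRE1α (kinase + RNase domains, D688N; Sf9-expressed; 0.25 nM) was pre-bound to Eu-anti-His antibody (2 nM) in HEPES pH 7.5/MgCl2/DTT buffer. It was then incubated with compounds and 2 nM Alexa647 ATP-competitive probe for 1 h at room temperature. Probe displacement was read as the TR-FRET 665/615 nm signal.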

T1 sequence (O75460 547-977 D688N): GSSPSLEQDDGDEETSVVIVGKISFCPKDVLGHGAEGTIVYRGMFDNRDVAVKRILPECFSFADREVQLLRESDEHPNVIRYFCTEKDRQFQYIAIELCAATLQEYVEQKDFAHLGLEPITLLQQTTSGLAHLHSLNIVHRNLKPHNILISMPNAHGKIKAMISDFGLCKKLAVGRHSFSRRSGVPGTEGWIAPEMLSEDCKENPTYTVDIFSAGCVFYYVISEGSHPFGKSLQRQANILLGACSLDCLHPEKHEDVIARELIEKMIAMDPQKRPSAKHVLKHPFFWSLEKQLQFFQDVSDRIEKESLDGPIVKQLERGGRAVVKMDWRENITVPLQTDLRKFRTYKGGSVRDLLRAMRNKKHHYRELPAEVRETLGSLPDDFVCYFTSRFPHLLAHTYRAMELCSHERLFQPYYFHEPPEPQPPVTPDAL

- IC50: 140 nM
SMILES: Cc1cc(-c2ccc(NC(=O)CC(C)C)c(F)c2)nc2cnc(N[C@H]3CC[C@H](N(C)C)CC3)nc12 [Compound 127, N-(4-(2-(((1,4-trans)-4-(Dimethylamino)cyclohexyl)amino)-8-methylpyrido[3,2-d]pyrimidin-6-yl)-2-fluorophenyl)-3-methylbutanamide]
